{"source": "patent US9596855B2", "about": "“Small molecule inhibitors of biofilm formation and the novel use of previously identified compounds for inhibition of biofilm formation and applications for drug therapy and medical device coating” (priority 2013, dated 2017)", "key": {"HeLa cells": {"system": "HeLa cells", "assay": "mammalian cell cytotoxicity", "format": "cell-based", "details": "up to the highest tested concentration (250 μM)"}, "tested strains": {"system": "tested strains", "assay": "bactericidal activity against tested strains", "format": "cell-based", "details": "any of the tested strains"}, "V. cholerae [1]": {"system": "V. cholerae", "assay": "image-based biofilm inhibition screening platform", "format": "cell-based", "experimental": "In the present study, a 1,248-member prefractionated marine natural product library was evaluated for biofilm inhibitory activity using a recently-developed image-based screening platform. […] Prefraction 1671D is a semi-purified mixture that contains mixture of several individual compounds. Prefraction 1671D was therefore subjected to one-compound-one-well ‘peak library’ fractionation using the inventors' standard protocol that automatically separates the constituents of prefractions of interest based on HPLC retention times, and connects specific constituents to observed biological activities through secondary screening.\nThis activity was coupled with a striking biofilm macrocolony phenotype, providing strong justification for purification and full structural characterization of the active constituent. It was from 1671D that “compound 5” was isolated."}, "V. cholerae [2]": {"system": "V. cholerae", "assay": "co-dosing of biofilm inhibitor with sub-MIC and sub-BIC antibiotics, image-based screen"}}}
{"smiles": "C=C1Oc2cc(OC)cc(C(=O)OC)c2NC1=O", "note": "[Compound 5]", "values": [{"measurement": "mammalian cell cytotoxicity", "setting": "HeLa cells", "value": "no mammalian cell cytotoxicity"}, {"measurement": "bactericidal activity", "setting": "tested strains", "value": "no bactericidal activity"}, {"measurement": "IC50", "setting": "V. cholerae [1]; Vibrio cholerae, read-out: biofilm inhibitory activity (IC50)", "value": 60.1, "unit": "µM"}, {"measurement": "biofilm phenotype (epifluorescence and confocal images)", "setting": "V. cholerae [1]; on treatment with compound", "value": "micro-colonies initially become less organized and less tightly packed"}, {"measurement": "biofilm-clearing efficacy", "setting": "V. cholerae [2]; with sub-BIC concentrations of ceftazidime", "value": "improve"}, {"measurement": "biofilm-clearing efficacy", "setting": "V. cholerae [2]; with sub-BIC concentrations of ciprofloxacin", "value": "improve"}]}
